Format in all cases: in vivo
Assay [1] can be described thus: Body weight in LPS rat models of parkinsonism. The conditions noted are these: for body weight: in g (unit assumed). As for the experimental part:
On the 1st day of the experiment, rats were either operated to model hemi-parkinsonism or sham operated. From the 9th to the 18th day of the experiment, the animals were injected either deuterium-depleted water or the test substance, according to their allocation into groups, for 10 days. On the 8th day of the experiment (before initiation of treatment—apomorphine test I) and on the 21st day of the experiment (after the end of administering the test substance —apomorphine test II) the animals underwent an apomorphine test to analyze the development of hemi-parkinsonism which correlates with the number of destroyed dopaminergic neurons. In addition, a follow-up analysis of fecal water content was carried out, i.e., before the start of treatment on the 8th day after the operation, as well as on the 21st (after the end of treatment) and the 28th day (before autopsy). On the 24th day of the experiment, behavioral tests were carried out in all groups. All animals were weighed before autopsy. During autopsy, ⅔ of animals from each group were sacrificed by cervical dislocation and brain and blood samples were collected for further biochemical and immunological tests. ⅓ of the animals were used for further immunohistochemical studies of the brain; for this purpose, under anesthesia, a procedure of fast, controlled and uniform fixation of the whole body of the animal was performed using 4% paraformaldehyde perfused through the heart of the rat to obtain the best preservation of the brain architecture for immunohistochemistry. Gage G J, et al., J Vis Exp. 2012 Jul. 30; (65).

In the next assay the test system is microglia. The experiment in a line: Functional profile of microglia in 6-OHDA rat models after prophylactic administration. The conditions noted are these: prophylactic i.p. As for the experimental part: (§1) Methods: Adult mature rodents were used in the study. […] Before prophylactic administration of the experimental drugs, the animals underwent an open field test to assay their general locomotor activity levels and anxiety. The prophylactic course consisted of 10 daily intraperitoneal injections of the drugs (in the case of combination drug, its components were administered at an interval of 2 hours). After the end of prophylactic course, Parkinson's disease was modelled in the animals. […] Ten days after the last (second) apomorphine test, the animals' behavioral responses were assessed in the open field test followed by euthanasia and analysis of functional (metabolic and phenotypic) profiles of phagocytes of different localization. Thus, the study of the functional profile of phagocytes in rat models of Parkinson's disease was performed on day 28 after the end of the course of prophylactic treatment with the experimental drugs. Resident peritoneal macrophages were isolated from sterile cell suspension of peritoneal exudate; enrichment of the suspension was carried out by 2-hour adhesion. Non-adherent and dead cells were separated by centrifugation. Functional characteristics of circulating phagocytes (monocytes and neutrophils) were evaluated in whole blood taken into a tube containing EDTA used as an anticoagulant. Mononuclear and polymorphonuclear phagocytes were analyzed on a flow cytofluorimeter using a gating method. Phagocytes of microglia were isolated using a Percoll density gradient. To assess the phenotypic profile of phagocytes, expression indices of the pan-phagocytic marker CD14 (co-receptor of the bacterial lipopolysaccharide) and the marker of alternative polarization of phagocytes CD206 (mannose receptor 1) were used. To characterize the metabolic profile, oxidative metabolism and phagocytic activity of microglia as well as the pathway of arginine metabolism were studied using flow cytometry and spectrometric methods respectively. FITC-labeled Staphylococcus aureus Wood 46 was used as the object of phagocytosis. The hemogram parameters were analyzed on the hematological analyzer Particle counter model PCE 210 (ERMA, Japan) adapted for the study of blood cells of rats and mice.

The subject of assay [2] is dopaminergic neurons in the black substance in rat models of Parkinson's disease (6-OHDA). Nature of the assay: Apomorphine test / destruction of dopaminergic neurons after prophylactic administration. Particulars: 6-OHDA rat models. The protocol:
as §1, with “To characterize the metabolic profile, oxidative metabolism and phagocytic activity of microglia as well as the pathway of arginine metabolism were studied using flow cytometry and spectrometric methods respectively. FITC-labeled Staphylococcus aureus Wood 46 was used as the object of phagocytosis.” left out

A further assay relates to circulating leukocytes. Nature of the assay: Blood count values in LPS rat models. Particulars: day 28. The protocol: On the 1st day of the experiment, rats were either operated to model hemi-parkinsonism or sham operated. From the 9th to the 18th day of the experiment, the animals were injected either deuterium-depleted water or the test substance, according to their allocation into groups, for 10 days. On the 8th day of the experiment (before initiation of treatment—apomorphine test I) and on the 21st day of the experiment (after the end of administering the test substance —apomorphine test II) the animals underwent an apomorphine test to analyze the development of hemi-parkinsonism which correlates with the number of destroyed dopaminergic neurons. In addition, a follow-up analysis of fecal water content was carried out, i.e., before the start of treatment on the 8th day after the operation, as well as on the 21st (after the end of treatment) and the 28th day (before autopsy). On the 24th day of the experiment, behavioral tests were carried out in all groups. All animals were weighed before autopsy. […]
The blood count values were analyzed at the completion of the experiment (day 28). The absolute number of leukocytes, as well as the absolute and relative numbers of lymphocytes, monocytes and neutrophilic granulocytes were calculated.

Marks after values point to notes of the source that are not given here.

As to “^64Zn-enriched zinc aspartate [^64Zne-asp]”, in assay [1] (1st day), the body weight is listed as 193.78 ± 22.21. In assay [1] (28th day), this substance had a body weight of 219.8 ± 18.31. In addition, the “body weight changes, %” value in assay [1] (between 1st and 28th day) was 13* %. Also, the “body weight of LPS rat models (in words)” value in assay [1] (day 28 versus day 1 and versus LPS + deuterium-depleted water, listed as 64Zn-asp) is reported as “statistically significant increase”. Moreover, in the assay on microglia, the “level of CD14 expression in microglia” value is “increase”; the “level of CD206 expression in microglia” value was “increase”; the “oxidative metabolism / ROS production of microglia versus intact animals” value is reported as “at the level of control intact animals”; the “oxidative metabolism of microglia, higher than in control rat models of Parkinson's disease” value is given as “twice”. In addition, the “Number of animals with 100% destruction of neurons (%)” value in assay [2] (prophylactic 10 daily i.p. injections, at completion of the experiment) was determined as 35%. The “Rate of rotational movements in animals with 100% destruction of neurons (r/30 min)” value in assay [2] (prophylactic i.p., apomorphine test) turned out to be 224.3 ± 35.9 r/30 min. The “animals with complete loss of neurons, less than in the control” value in assay [2] (prophylactic i.p., versus control 75%) was “over 50%”. Besides, the “absolute number of circulating leukocytes” value with circulating leukocytes is “did not influence”.

The values above are taken from patent publication US11779597B2, “Method of treating Parkinson's and other neurodegenerative diseases” (Vector Vitale IP LLC, priority 2019, dated 2023).
